Measurements from patent US20260092061A1, “COMPOUNDS FOR TARGETED PROTEIN DEGRADATION” (Amphista Therapeutics Limited, priority 2022, published 2026).
Like-named read-outs stand apart in the source and are kept apart here.

Biological target: T1, BRD9 (Homo sapiens, UniProt Q9H8M2)
T1 sequence (Q9H8M2 1-597): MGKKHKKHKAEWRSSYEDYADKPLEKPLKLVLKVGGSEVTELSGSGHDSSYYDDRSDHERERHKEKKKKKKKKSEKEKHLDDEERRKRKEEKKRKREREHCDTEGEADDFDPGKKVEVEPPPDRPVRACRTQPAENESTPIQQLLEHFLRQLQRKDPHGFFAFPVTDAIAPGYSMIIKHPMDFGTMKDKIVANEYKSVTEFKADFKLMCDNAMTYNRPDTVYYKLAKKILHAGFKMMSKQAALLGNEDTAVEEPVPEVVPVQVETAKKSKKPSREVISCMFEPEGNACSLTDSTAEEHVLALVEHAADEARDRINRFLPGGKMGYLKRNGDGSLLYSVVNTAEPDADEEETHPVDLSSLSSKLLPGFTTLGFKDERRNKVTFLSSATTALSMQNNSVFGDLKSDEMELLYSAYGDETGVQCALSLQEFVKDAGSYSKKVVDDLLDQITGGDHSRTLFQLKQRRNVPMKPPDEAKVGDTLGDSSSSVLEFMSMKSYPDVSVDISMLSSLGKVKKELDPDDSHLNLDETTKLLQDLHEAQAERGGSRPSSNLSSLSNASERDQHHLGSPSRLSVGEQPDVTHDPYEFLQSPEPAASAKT
Assay: Degradation of BRD9 (IF), immunofluorescence in MV4-11 cells, 24 hours (Assay Protocol 2)
Format: cell-based
Set-up: A suspension of MV4-11 cells (ATCC CRL-9591) was prepared; host or cells: MV4-11
Conditions: BRD9 degradation; for DC50: read-out: DC50
Experimental: Assay Protocol 2—Degradation of BRD9 (IF)
A suspension of MV4-11 cells (ATCC CRL-9591) was prepared in phenol red-free assay media (IMDM Thermo Scientific 21056023+10% FBS ATCC 302025) and cells were seeded at 20,000 cells per well (45 μL) in sterile black poly-d-lysine coated 384 well plates (Greiner 781948). Compounds were prepared at 1000× final concentration in DMSO, diluted 1:100 in assay media, and 5 μL compound was added to each well of the cell plate. Cells were incubated for 24 hours at 37° C. with 5% CO2. All the following incubations for immunofluorescence staining were at room temperature. 15 μL of 16% PFA was added to each well (3.7% final concentration) and the cells were fixed for 15 min then washed twice with DPBS. Cells were permeabilised with 0.1% Triton X-100 for 10 min, Triton X-100 was removed, then blocked with 1% BSA in DPBS for 1 hour. Cells were stained with 25 μL anti-BRD9 E4Q3F antibody (CST 48306) diluted 1:25600 in 1% BSA in DPBS for 2-3 hours. Wels were washed twice with DPBS then incubated with 25 μL of 1% BSA containing a 1:1000 dilution of Anti-rabbit Alexa Fluor™ 647 secondary antibody (Thero Scientific A21244) and 1 μg/mL Hoechst nuclear counter stain (Abcam ab228551) for 1 hour. Wells were washed twice with DPBS prior to imaging on a Perkin Elmer Operetta CLS with 10× air lens. Images were processed using Harmony High-Content Imaging and Analysis Software (Perkin Elmer) and the mean contrast ratio of Alexa Fluor™ 647 in central nuclei was used to quantify BRD9 protein levels. Data was further analysed using Dotmatics software and % BRD9 remaining was calculated by normalisation to average data from high and low control wells (cells treated with DMSO or 100 nM CFT-8634 respectively).

[1] = MV4-11, Assay protocol 2, read-out: Dmax

DC50 (Assay protocol 2)	Dmax [1]	Structure (SMILES)	Dmax (Assay protocol 2)
1.25 to 10 nM	40 to 70%	COc1cc(-c2cn(C)c(=O)c3[nH]ncc23)cc(OC)c1CN1CCN(Cc2cccc3c2CCN(C(=O)/C(C#N)=C/c2cccc(Br)n2)C3C)CC1 (mixture of isomers) [Compound B96, (E/Z)-3-(6-bromopyridin-2-yl)-2-(5-((4-(2,6-dimethoxy-4-(6-methyl-7-oxo-6,7-dihydro-1H-pyrazolo[3,4-c]pyridin-4-yl)benzyl)piperazin-1-yl)methyl)-1-methyl-1,2,3,4-tetrahydroisoquinoline-2-carbonyl)acrylonitrile]	
25 to 1000 nM	70 to 75%	COc1cc(-c2cn(C)c(=O)c(C)c2C)cc(OC)c1CN1C[C@H](C)N(Cc2cccc3c2CCN(C(=O)/C(C#N)=C/C(C)(C)C)C3C)[C@@H](C)C1 (mixture of isomers) [Compound B100, (E/Z)-2-(5-(((2S,6S)-4-(2,6-dimethoxy-4-(1,4,5-trimethyl-6-oxo-1,6-dihydropyridin-3-yl)benzyl)-2,6-dimethylpiperazin-1-yl)methyl)-1-methyl-1,2,3,4-tetrahydroisoquinoline-2-carbonyl)-4,4-dimethylpent-2-enenitrile]	
1.25 to 10 nM	40 to 70%	COc1cc(-c2cn(C)c(=O)c(C)c2C)cc(OC)c1CN1CC2CCC1CN2Cc1cccc2c1CCN(C(=O)/C(C#N)=C/C(C)(C)C)C2C (mixture of isomers) [Compound B101, (E/Z)-2-(5-((5-(2,6-dimethoxy-4-(1,4,5-trimethyl-6-oxo-1,6-dihydropyridin-3-yl)benzyl)-2,5-diazabicyclo[2.2.2]octan-2-yl)methyl)-1-methyl-1,2,3,4-tetrahydroisoquinoline-2-carbonyl)-4,4-dimethylpent-2-enenitrile]	
25 to 1000 nM	> 75%	COc1cc(-c2cn(C)c(=O)c(C)c2C)cc(OC)c1CN1CCN(Cc2cccc3c2CCN(C(=O)/C(C#N)=C/C(C)(C)C)C3C)[C@@H](C)C1 (mixture of isomers) [Compound B102]	
1.25 to 10 nM	> 75%	COc1cc(-c2cn(C)c(=O)c(C)c2C)cc(OC)c1CN1CCN(Cc2cccc3c2CCN(C(=O)/C(C#N)=C/C(C)(C)C)C3C)CC12CC2 (mixture of isomers) [Compound B103, (E/Z)-2-(5-((4-(2,6-dimethoxy-4-(1,4,5-trimethyl-6-oxo-1,6-dihydropyridin-3-yl)benzyl)-4,7-diazaspiro[2.5]octan-7-yl)methyl)-1-methyl-1,2,3,4-tetrahydroisoquinoline-2-carbonyl)-4,4-dimethylpent-2-enenitrile]	
< 1.25 nM	> 75%	COc1cc(-c2cn(C)c(=O)c3[nH]ncc23)cc(OC)c1CN1CCN(Cc2cccc3c2CCN(C(=O)/C(C#N)=C/C(C)(C)C)C3C)C2(CC2)C1 (mixture of isomers) [Compound B104, (E/Z)-2-(5-((7-(2,6-dimethoxy-4-(6-methyl-7-oxo-6,7-dihydro-1H-pyrazolo[3,4-c]pyridin-4-yl)benzyl)-4,7-diazaspiro[2.5]octan-4-yl)methyl)-1-methyl-1,2,3,4-tetrahydroisoquinoline-2-carbonyl)-4,4-dimethylpent-2-enenitrile]	
< 1.25 nM	> 75%	COc1cc(-c2cn(C)c(=O)c3ccsc23)cc(OC)c1CN1CCN(Cc2cccc3c2CCN(C(=O)/C(C#N)=C/c2cccc(Br)n2)C3C)C2(CC2)C1 (mixture of isomers) [Compound B108, (E/Z)-3-(6-bromopyridin-2-yl)-2-(5-((7-(2,6-dimethoxy-4-(5-methyl-4-oxo-4,5-dihydrothieno[3,2-c]pyridin-7-yl)benzyl)-4,7-diazaspiro[2.5]octan-4-yl)methyl)-1-methyl-1,2,3,4-tetrahydroisoquinoline-2-carbonyl)acrylonitrile]	

Continued, compound first:

Structure (SMILES)	DC50 (Assay protocol 2)	Dmax [1]	Dmax (Assay protocol 2)
COc1cc(-c2cn(C)c(=O)c(C)c2C)cc(OC)c1CN1CCC(COc2cccc3c2CCN(C(=O)/C(C#N)=C/c2cccc(Br)n2)C3C)CC1 (mixture of isomers) [Compound B95, (E/Z)-3-(6-bromopyridin-2-yl)-2-(5-((1-(2,6-dimethoxy-4-(1,4,5-trimethyl-6-oxo-1,6-dihydropyridin-3-yl)benzyl)piperidin-4-yl)methoxy)-1-methyl-1,2,3,4-tetrahydroisoquinoline-2-carbonyl)acrylonitrile]	< 1.25 nM	70 to 75%	
COc1cc(-c2cn(C)c(=O)c(C)c2C)cc(OC)c1CN1CCN(Cc2cccc3c2CCN(C(=O)/C(C#N)=C/C(C)(C)C)C3C)C(C)(C)C1 (mixture of isomers) [Compound B98, (E/Z)-2-(5-((4-(2,6-dimethoxy-4-(1,4,5-trimethyl-6-oxo-1,6-dihydropyridin-3-yl)benzyl)-2,2-dimethylpiperazin-1-yl)methyl)-1-methyl-1,2,3,4-tetrahydroisoquinoline-2-carbonyl)-4,4-dimethylpent-2-enenitrile]	10 to 25 nM	> 75%	
COc1cc(-c2cn(C)c(=O)c(C)c2C)cc(OC)c1CN1CCN(Cc2cccc3c2CCN(C(=O)C(C#N)=Cc2cccc(Br)n2)C3C)C(C)(C)C1 (mixture of isomers) [Compound B99, (E/Z)-3-(6-bromopyridin-2-yl)-2-(5-((4-(2,6-dimethoxy-4-(1,4,5-trimethyl-6-oxo-1,6-dihydropyridin-3-yl)benzyl)-2,2-dimethylpiperazin-1-yl)methyl)-1-methyl-1,2,3,4-tetrahydroisoquinoline-2-carbonyl)acrylonitrile]	25 to 1000 nM		+ (+ = >40% and <70%)
COc1cc(-c2cn(C)c(=O)c(C)c2C)cc(OC)c1CN1CCN(c2cccc(C3CCCN3C(=O)/C(C#N)=C/C(C)C)c2)CC1 (mixture of isomers) [Compound B106, (E/Z)-2-(2-(3-(4-(2,6-dimethoxy-4-(1,4,5-trimethyl-6-oxo-1,6-dihydropyridin-3-yl)benzyl)piperazin-1-yl)phenyl)pyrrolidine-1-carbonyl)-4-methylpent-2-enenitrile]	1.25 to 10 nM	> 75%	
COc1cc(-c2cn(C)c(=O)c3ccsc23)cc(OC)c1CN1CCN(Cc2cccc3c2CCN(C(=O)/C(C#N)=C/C(C)(C)C)C3C)C2(CC2)C1 (mixture of isomers) [Compound B107, (E/Z)-2-(5-((7-(2,6-dimethoxy-4-(5-methyl-4-oxo-4,5-dihydrothieno[3,2-c]pyridin-7-yl)benzyl)-4,7-diazaspiro[2.5]octan-4-yl)methyl)-1-methyl-1,2,3,4-tetrahydroisoquinoline-2-carbonyl)-4,4-dimethylpent-2-enenitrile]	< 1.25 nM	> 75%	
COc1cc(-c2cn(C)c(=O)c(C)c2C)cc(OC)c1CN1CCN(Cc2cccc3c2CCN(C(=O)/C(C#N)=C/c2cccc(Br)n2)C3C)C(C)(C)C1 (mixture of isomers) [Compound B109, (E/Z)-3-(6-bromopyridin-2-yl)-2-(5-((4-(2,6-dimethoxy-4-(1,4,5-trimethyl-6-oxo-1,6-dihydropyridin-3-yl)benzyl)-2,2-dimethylpiperazin-1-yl)methyl)-1-methyl-1,2,3,4-tetrahydroisoquinoline-2-carbonyl)acrylonitrile]	1.25 to 10 nM	> 75%	
